Article PMC6271477, “Effects of Single Amino Acid Substitution on the Biophysical Properties and Biological Activities of an Amphipathic α-Helical Antibacterial Peptide Against Gram-Negative Bacteria” (Molecules, 2014)

Tests used:
[1] = test system: E. coli ATCC25922; assay type: cell-based; conditions: ATCC25922, 24 h
Method: (§1) Minimal inhibitory concentrations (MIC) were determined using a broth dilution method. Briefly, bacteria were grown overnight at 37 °C in Mueller–Hinton (MH) Broth, diluted in the same medium and transferred into 96-well microtiter plates (90 μL/well). Peptides were serially diluted using 0.2% bovine serum albumin containing 0.01% acetic acid and added to the microtiter plates in a volume of 10 μL per well to give a final concentration of 5 × 10^5 CFU/mL. MICs were defined as the lowest peptide concentration that inhibited bacterial growth after incubation for 24 h at 37 °C.

[2] = test system: P. aeruginosa H188; assay type: cell-based; conditions: H188, 24 h
Method: as §1

[3] = test system: E. coli Clinical Isolate; assay type: cell-based; conditions: Clinical Isolate, 24 h
Method: as §1

[4] = test system: P. aeruginosa ATCC27853; assay type: cell-based; conditions: ATCC27853, 24 h
Method: as §1

[5] = Tryptophan fluorescence, binding to lipid vesicles; conditions: for Tryptophan fluorescence emission maximum: excitation 280 nm
Method: Upon peptide diffusion into the cytoplasmic membrane, evidence of selective interaction between peptides with bacterial versus mammalian cytoplasmic membrane was illustrated by the binding events of the peptides to anionic or zwitterionic lipid vesicles. […] Lipid/peptide (L/P) ratios were maintained high enough at low peptide concentration (2 μM) in order to mimic the initial steps of peptide-membrane binding. The spectra were recorded as shown in Supplementary Figure S1. […] The significant blue shifts of Δλmax (17 to 23 nm) for all peptides upon exposure to PC/PG vesicles indicated a membrane partition state of Trp in negatively charged vesicles containing 30% anionic lipids (PG).
Unilamellar vesicles were prepared by a standard procedure with either PC/PG (7:3, w/w) or PC/cholesterol (8:1, w/w) as described previously. Briefly, the desired mixtures of lipids were dissolved in a chloroform/methanol mixture (2:1, v/v), dried under nitrogen and then lyophilized for 24 h to remove traces of organic solvent. Dry lipid films were suspended in 10 mM HEPES buffer containing 150 mM NaCl (pH 7.4) by vortex mixing. After five freeze-thawing cycles, the suspension was extruded 15 times through double polycarbonate membranes with 0.1 μm diameter pores on an Avanti mini-extruder apparatus. The lipid concentration was determined by phosphorus analysis as previously reported.
(§2) Fluorescence emission spectra of peptide Trp residues were monitored by a Shimadzu RF-5301 spectrofluorometer. The excitation of wavelength was set as 280 nm and the emission spectra of each peptide, with or without lipid vesicles, were recorded between 300 and 450 nm. Thus three curves were recorded for each peptide, in HEPES buffer or with either PC/PG vesicles or PC/cholesterol vesicles. The blue shift of Trp residues in vesicles were referred to in buffer condition. The final concentrations of peptide and lipid were 2 μM and 100 μM (1/50), respectively.

[6] = Analytical RP-HPLC retention time as a measure of peptide hydrophobicity; assay type: physicochemical; conditions: RP-HPLC at 25 °C, Zorbax 300 SB-C8 column, linear AB gradient, A 0.1% aqueous TFA, B 0.1% TFA in acetonitrile, 1 mL/min, detection at 210 nm
Method: Among substitutions, the retention times ranged from 32.2 min (peptide V16K) to 40.4 min (peptide V16L), which reflect the pure effects of single amino acid substitutions. Thus, the retention times of peptides reflect the relative hydrophobicity of side chains. Consistent with previous studies, the hydrophobicity of peptide analogs was generally in the following order: Lys < Gly < Ser < Ala < Val < Leu. Glu-substituted peptide was an exception, as it contains a negatively-charged side chain and this should decrease the hydrophobicity of the peptide dramatically.
Peptides were analyzed on a Shimadzu LC-20A HPLC using a Zorbax 300 SB-C8 column (150 ° 4.6 mm i.d., 5 μm particle size, 300 Å pore size) from Agilent Technologies using a linear AB gradient and a flow rate of 1 mL/min, where solvents A and B were as described above. Absorbance signals of peptides were detected at 210 nm.

[7] = CD spectroscopy, helicity in benign buffer and in 50% TFE; assay type: physicochemical; conditions: for [θ]222, mean residue molar ellipticity, benign / [θ]222, mean residue molar ellipticity, 50% TFE: CD at 222 nm, peptide 75 μM; for [θ]222, mean residue molar ellipticity, benign / [θ]222, mean residue molar ellipticity, 50% TFE / % helix, 50% TFE: 25 °C; for [θ]222, mean residue molar ellipticity, benign: KP buffer (100 mM KCl, 50 mM K2HPO4/KH2PO4, pH 7.0); for [θ]222, mean residue molar ellipticity, 50% TFE / % helix, 50% TFE: KP buffer diluted 1:1 (v/v) with TFE; for % helix, 50% TFE / % helix, benign: relative to the molar ellipticity of peptide V16E in 50% TFE; for % helix, benign: KP buffer pH 7.0, 25 °C
Method: The secondary structures of peptides were determined in benign buffer and in a hydrophobic environment (50% trifluoroethanol, TFE) to mimic the hydrophobic environment of the membrane. […] The principle of side chain interaction at the i to i + 3 and i to i + 4 positions has been used to promote α-helix stability, for example, the incorporation of Lys and Glu residues to stabilize electrostatic attractions. Thus, the helicity of peptide V16E in the presence of 50% TFE that presented the greatest value among all analogs should rely on the contribution of the electrostatic attraction of the side chain of K13 and E16, which stabilizes the helix. The relative helicity is 100% for peptide V16E in 50% TFE, showing the importance of the salt bridges of K13 and E16 to stabilize the helical structure. In general, subtle side-chain alterations by single amino acid substitutions made no significant changes on secondary structures both in aqueous and in hydrophobic environments (Table 2).
Circular dichroism spectra were measured with a 0.02 cm path length quartz cuvette on a Jasco J-810 spectropolarimeter (Jasco, Tokyo, Japan) at 25 °C. Data were collected from 250 to 190 nm at a sensitivity of 100 millidegrees, response time of 1 s, bandwidth of 1.0 nm and a scan speed of 100 nm/min. Peptides were measured at a concentration of 75 μM in a benign buffer (50 mM KH2PO4/K2HPO4, 100 mM KCl, pH 7) or the benign buffer mixed with 50% 2,2,2-trifluoroethanol (TFE). The mean residue molar ellipticities were calculated using the equation [θ] = θ/10lcMn, where θ is the ellipticity in millidegrees, l is the optical path length of the cuvette in centimeters, cM is the peptide concentration in mole/liter and n is the number of residues in the peptide.

[8] = Tryptophan fluorescence in HEPES buffer; assay type: physicochemical; conditions: peptide 2 μM, excitation 280 nm
Source text: Upon peptide diffusion into the cytoplasmic membrane, evidence of selective interaction between peptides with bacterial versus mammalian cytoplasmic membrane was illustrated by the binding events of the peptides to anionic or zwitterionic lipid vesicles. The repositioning of the tryptophan indole group in an environment of reduced polarity upon membrane binding results in a blue shift in the fluorescence […] maximum coupled with an enhancement of emission intensity. Lipid/peptide (L/P) ratios were maintained high enough at low peptide concentration (2 μM) in order to mimic the initial steps of peptide-membrane binding. The spectra were recorded as shown in Supplementary Figure S1. […] The significant blue shifts of Δλmax (17 to 23 nm) for all peptides upon exposure to PC/PG vesicles indicated a membrane partition state of Trp in negatively charged vesicles containing 30% anionic lipids (PG).
as §2

[9] = test system: E. coli DH5α; assay: MIC by broth dilution; assay type: cell-based; conditions: MH broth, 5 × 10^5 CFU/mL, 24 h at 37 °C
Method: as §1

[10] = PC/PG (7:3, w/w) vesicles versus HEPES buffer, lipid:peptide 50:1, peptide 2 μM
[11] = PC/PG (7:3, w/w) vesicles, lipid and peptide in a molar ratio of 50:1, peptide 2 μM, lipid 100 μM
[12] = PC/cholesterol (8:1, w/w) vesicles versus HEPES buffer, peptide 2 μM, lipid 100 μM
[13] = PC/cholesterol (8:1, w/w) vesicles, peptide 2 μM, lipid 100 μM

Substance | MIC [1] | MIC [2] | MIC [3] | MIC [4] | Blue shift in emission maximum [5, 10] | Tryptophan fluorescence emission maximum [5, 11] | Blue shift in emission maximum [5, 12] | Tryptophan fluorescence emission maximum [5, 13] | tR, retention time during RP-HPLC (relative hydrophobicity) [6] | [θ]222, mean residue molar ellipticity, benign [7] | [θ]222, mean residue molar ellipticity, 50% TFE [7] | % helix, 50% TFE [7] | % helix, benign [7] | Tryptophan fluorescence emission maximum [8] | MIC [9]
Ac-KWKSFLKTFKSAKKTALHTALKAISS-NH2 [Peptide V16A] | 2 µg/mL | 4 µg/mL | 1 µg/mL | 4 µg/mL | 22 nm | 328 nm | 1 nm | 349 nm | 36.6 min | −3,057 degree·cm^2·dmol^−^1 | −28,769 degree·cm^2·dmol^−^1 | 95.7% | 10.2% | 350 nm | 4 µg/mL
Ac-KWKSFLKTFKSAKKTELHTALKAISS-NH2 [Peptide V16E] | 16 µg/mL | 64 µg/mL | 125 µg/mL | 125 µg/mL | 17 nm | 333 nm | 1 nm | 349 nm | 34.6 min | −3,465 degree·cm^2·dmol^−^1 | −30,063 degree·cm^2·dmol^−^1 | 100% | 11.5% | 350 nm | 64 µg/mL
Ac-KWKSFLKTFKSAKKTGLHTALKAISS-NH2 [Peptide V16G] | 8 µg/mL | 8 µg/mL | 16 µg/mL | 32 µg/mL | 21 nm | 329 nm | 1 nm | 349 nm | 33.6 min | −2,839 degree·cm^2·dmol^−^1 | −27,857 degree·cm^2·dmol^−^1 | 92.7% | 9.4% | 350 nm | 8 µg/mL
Ac-KWKSFLKTFKSAKKTLLHTALKAISS-NH2 [Peptide V16L] | 1 µg/mL | 2 µg/mL | 1 µg/mL | 2 µg/mL | 23 nm | 326 nm | 2 nm | 348 nm | 40.4 min | −3,595 degree·cm^2·dmol^−^1 | −29,803 degree·cm^2·dmol^−^1 | 99.1% | 12.0% | 350 nm | 4 µg/mL
Ac-KWKSFLKTFKSAKKTSLHTALKAISS-NH2 [Peptide V16S] | 8 µg/mL | 4 µg/mL | 16 µg/mL | 32 µg/mL | 22 nm | 328 nm | 1 nm | 349 nm | 34.3 min | −1,760 degree·cm^2·dmol^−^1 | −28,949 degree·cm^2·dmol^−^1 | 96.3% | 5.9% | 350 nm | 8 µg/mL
